The source of these data is US20220125778A1 (priority 2019, published 2022).

The test has as its target β-glucuronidase activity in live E. coli (4MUG to 4MU conversion) (Escherichia coli, UniProt P05804). Nature of the test: Cell-based E. coli assay with 4MUG substrate, with and without esterase pre-treatment of prodrug. The note with it: for IC50: live E. coli. How it is done: For esterase activation, the prodrug is treated with 5 mg/mL esterase for 30 mins at 37° C. to cleave the ester bonds yielding the glucuronide moiety. Following treatment, an inhibitor titration ranging from 10 uM to 10 pM is mixed and preincubated with live E. coli for 5 mins or 4 hours at 37° C. in a microplate with assay buffer (HEPES pH 7, NaCl). Chemically synthesized SY65-G is included as a positive control. Following preincubation, 4-methylumbelliferyl glucuronide (4MUG) is added at a final concentration of 100 uM to the cell and inhibitor mixture. The conversion of 4MUG to 4MU is detected via fluorescence (Ex./Em.: 360/460). […] The untreated prodrug is not active.

The mark [1] stands for this setting: 5 min preincubation, no esterase treatment, read-out: Potency, pre-incubation time 5 min.
Where [2] appears, read: 5 min preincubation, treated with 5 mg/mL esterase for 30 mins at 37° C., read-out: Potency, pre-incubation time 5 min, + Esterase.
[3] abbreviates: 4 hour preincubation, no esterase treatment, read-out: Potency, pre-incubation time 4 hour.
[4] abbreviates: 4 hour preincubation, treated with 5 mg/mL esterase for 30 mins at 37° C., read-out: Potency, pre-incubation time 4 hour, + Esterase.

Read-outs that look alike come from different tables or passages of the source.

Chain of β-glucuronidase activity in live E. coli (4MUG to 4MU conversion) (P05804 whole entry): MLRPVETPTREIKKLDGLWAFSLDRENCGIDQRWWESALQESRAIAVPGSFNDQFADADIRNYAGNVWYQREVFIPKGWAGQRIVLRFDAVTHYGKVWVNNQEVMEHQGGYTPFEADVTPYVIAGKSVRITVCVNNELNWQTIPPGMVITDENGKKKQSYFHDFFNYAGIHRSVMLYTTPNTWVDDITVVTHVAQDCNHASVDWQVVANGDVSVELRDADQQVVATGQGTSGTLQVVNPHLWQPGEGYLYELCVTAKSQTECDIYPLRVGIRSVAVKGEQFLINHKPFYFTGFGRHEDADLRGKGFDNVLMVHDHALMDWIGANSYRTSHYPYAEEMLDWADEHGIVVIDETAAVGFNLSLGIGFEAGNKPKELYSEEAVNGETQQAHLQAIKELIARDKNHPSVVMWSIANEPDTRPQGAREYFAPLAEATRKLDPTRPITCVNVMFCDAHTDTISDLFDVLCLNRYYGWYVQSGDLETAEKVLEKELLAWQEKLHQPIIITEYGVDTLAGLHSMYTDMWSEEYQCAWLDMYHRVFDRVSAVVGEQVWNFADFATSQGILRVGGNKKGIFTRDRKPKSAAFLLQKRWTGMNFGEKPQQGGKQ

As for `Cc1cc(C)c2[nH]c(=O)c(CN(CCO[C@@H]3O[C@H](C(=O)O)[C@@H](O)[C@H](O)[C@H]3O)C(=O)Nc3ccccc3C(C)C)cc2c1` [SY65-G, (2S,3S,4S,5R,6R)-6-[2-[(6,8-dimethyl-2-oxo-1H-quinolin-3-yl)methyl-[(2-isopropylphenyl)carbamoyl]amino]ethoxy]-3,4,5-trihydroxy-tetrahydropyran-2-carboxylic acid], the IC50 came to 125 nM under setting [1], 93 nM under setting [2], 0.53 nM under setting [3] and 0.57 nM under setting [4].

As for `COC(=O)[C@H]1O[C@@H](OCCN(Cc2cc3cc(C)cc(C)c3[nH]c2=O)C(=O)Nc2ccccc2C(C)C)[C@H](OC(C)=O)[C@@H](OC(C)=O)[C@@H]1OC(C)=O` [SY65-G-Ac, Methyl (2S,3S,4S,5R,6R)-3,4,5-triacetoxy-6-[2-[(6,8-dimethyl-2-oxo-1H-quinolin-3-yl)methyl-[(2-isopropylphenyl)carbamoyl]amino]ethoxy]tetrahydropyran-2-carboxylate], the “Potency of esterase treated prodrug versus glucuronide positive control” value (esterase treated) is reported as “just as potent as the glucuronide positive control”. Also, the IC50 is, setting by setting: under setting [1], greater than 10000 nM; under setting [2], 156 nM; under setting [3], greater than 10000 nM; under setting [4], 0.52 nM. Moreover, the “Activity of untreated prodrug in cell-based assay” value (without esterase treatment) was “not active”.
